Data taken from patent US20260042731A1, “(2,4-DICHLOROPHENOXY)ACETIC ACID ANALOGS” (CORTEVA AGRISCIENCE LLC, priority 2022, published 2026).
Where two headings read alike, the source gives them in different places.

Experiments:
[1] = tested on: Amaranthus rudis (AMATA), tall water hemp; test: Postemergence herbicide evaluation, growth of Amaranthus rudis (AMATA); type: in vivo; details: Amaranthus tuberculatus, post-emergence, read-out: Ave. AMATA, percent reduction in plant size relative to the untreated control
[2] = tested on: Ambrosia artemisiifolia (AMBEL), common ragweed; test: Postemergence herbicide evaluation, growth of Ambrosia artemisiifolia (AMBEL); type: in vivo; details: Ambrosia artemisiifolia, post-emergence, read-out: AVE. AMBEL, percent reduction in plant size relative to the untreated control
[3] = tested on: Abutilon theophrasti (ABUTH), velvetleaf; test: Postemergence herbicide evaluation, growth of Abutilon theophrasti (ABUTH); type: in vivo; details: Abutilon theophrasti, post-emergence, read-out: AVE. ABUTH, percent reduction in plant size relative to the untreated control
[4] = tested on: Chenopodium album (CHEAL), common lambsquarters; test: Postemergence herbicide evaluation, growth of Chenopodium album (CHEAL); type: in vivo; details: Chenopodium album, post-emergence, read-out: Ave. CHEAL, percent reduction in plant size relative to the untreated control
[5] = tested on: glyphosate resistant Conyza canadensis (L.) (ERICA), horseweed; test: Postemergence herbicide evaluation, growth of Conyza canadensis (ERICA); type: in vivo; details: Erigeron canadensis, post-emergence, read-out: Ave. ERICA, percent reduction in plant size relative to the untreated control
[6] = Volatility of compounds measured by thermogravimetric analysis (TGA); type: physicochemical
[7] = tested on: weeds ABUTH, AMATA, AMBEL, CHEAL, ERICA; test: Postemergence herbicide evaluation, overall average % weed control (ABUTH, AMATA, AMBEL, CHEAL, ERICA); type: in vivo; details: post-emergence, read-out: Overall Ave % Weed Control

SMILES | pest or weed control at 280 g/ha ([1]; 168 h) [%] | pest or weed control at 560 g/ha ([1]; 168 h) [%] | pest or weed control at 280 g/ha ([1]; 336 h) [%] | pest or weed control at 560 g/ha ([1]; 336 h) [%] | pest or weed control at 280 g/ha ([1]; 504 h) [%] | pest or weed control at 560 g/ha ([1]; 504 h) [%] | pest or weed control at 280 g/ha ([2]; 168 h) [%] | pest or weed control at 560 g/ha ([2]; 168 h) [%] | pest or weed control at 280 g/ha ([2]; 336 h) [%] | pest or weed control at 560 g/ha ([2]; 336 h) [%] | pest or weed control at 280 g/ha ([2]; 504 h) [%] | pest or weed control at 560 g/ha ([2]; 504 h) [%] | pest or weed control at 280 g/ha ([3]; 168 h) [%] | pest or weed control at 560 g/ha ([3]; 168 h) [%] | pest or weed control at 280 g/ha ([3]; 336 h) [%] | pest or weed control at 560 g/ha ([3]; 336 h) [%] | pest or weed control at 280 g/ha ([3]; 504 h) [%] | pest or weed control at 560 g/ha ([3]; 504 h) [%] | pest or weed control at 280 g/ha ([4]; 168 h) [%] | pest or weed control at 560 g/ha ([4]; 168 h) [%] | also measured
O=C(COc1ccc(Cl)cc1Cl)Nc1ccncc1 [Compound D1, 2-(2,4-Dichlorophenoxy)-N-(pyridin-4-yl)acetamide] | 68 | 78 | 75 | 85 | 78 | 90 | 60 | 65 | 89 | 94 | 78 | 99 | 78 | 78 | 88 | 80 | 93 | 87 | 68 | 75 | pest or weed control at 280 g/ha ([4]; 336 h): 78%; pest or weed control at 560 g/ha ([4]; 336 h): 85%; pest or weed control at 280 g/ha ([4]; 504 h): 97%; pest or weed control at 560 g/ha ([4]; 504 h): 93%; pest or weed control at 280 g/ha ([5]; 168 h): 70%; pest or weed control at 560 g/ha ([5]; 168 h): 65%; pest or weed control at 280 g/ha ([5]; 336 h): 88%; pest or weed control at 560 g/ha ([5]; 336 h): 90%; pest or weed control at 280 g/ha ([5]; 504 h): 99%; pest or weed control at 560 g/ha ([5]; 504 h): 97%; TGA Data (rate of weight loss, volatility) [6]: 0.05 µg/min; pest or weed control at 280 g/ha ([7]; 168 h): 69%; pest or weed control at 560 g/ha ([7]; 168 h): 72%; pest or weed control at 280 g/ha ([7]; 336 h): 83%; pest or weed control at 560 g/ha ([7]; 336 h): 87%; pest or weed control at 280 g/ha ([7]; 504 h): 89%; pest or weed control at 560 g/ha ([7]; 504 h): 93%
O=C(COc1ccc(Cl)cc1Cl)n1ncc2ccccc21 [Compound D3, 2-(2,4-Dichlorophenoxy)-1-(1H-indazol-1-yl)ethanone] | 70 | 73 | 73 | 80 | 75 | 78 | 63 | 68 | 75 | 90 | 73 | 95 | 30 | 48 | 25 | 43 | 23 | 35 | 68 | 68 | pest or weed control at 280 g/ha ([4]; 336 h): 63%; pest or weed control at 560 g/ha ([4]; 336 h): 70%; pest or weed control at 280 g/ha ([4]; 504 h): 63%; pest or weed control at 560 g/ha ([4]; 504 h): 70%; pest or weed control at 280 g/ha ([5]; 168 h): 63%; pest or weed control at 560 g/ha ([5]; 168 h): 68%; pest or weed control at 280 g/ha ([5]; 336 h): 83%; pest or weed control at 560 g/ha ([5]; 336 h): 85%; pest or weed control at 280 g/ha ([5]; 504 h): 84%; pest or weed control at 560 g/ha ([5]; 504 h): 88%; TGA Data (rate of weight loss, volatility) [6]: 0.03 µg/min; pest or weed control at 280 g/ha ([7]; 168 h): 59%; pest or weed control at 560 g/ha ([7]; 168 h): 65%; pest or weed control at 280 g/ha ([7]; 336 h): 64%; pest or weed control at 560 g/ha ([7]; 336 h): 74%; pest or weed control at 280 g/ha ([7]; 504 h): 63%; pest or weed control at 560 g/ha ([7]; 504 h): 73%
